# According to patent US9259482B2, “Conjugates of polymers having a therapeutically active agent and an angiogenesis targeting moiety attached thereto and uses thereof in the treatment of angiogenesis related diseases” (Ramot at Tel-Aviv University Ltd., priority 2008, dated 2016):
# Like-named read-outs stand apart in the source and are kept apart here.
# Experiments:
# HUVEC [1] = assay: cells; format: cell-based, human
# Experimental: (§1) The anti-angiogenesis and anti-proliferative activity of the conjugates described herein was evaluated by the effect of the conjugates on the proliferation of HUVEC, U87 and PANC02 cells.
# (§2) HUVEC were plated onto 24-well plate (1×10^4 cells/well) in endothelial cell basal medium 2 (EBM-2; Cambrex, USA) supplemented with 5% fetal bovine serum (FBS). Following 24 hours of incubation (37° C.; 5% CO2) medium was replaced with Endothelial cell growth medium-2 (EGM-2; Cambrex, USA). U87 and PANC02 cells were plated onto 96 well plate (2×10^3 cells/well) in DMEM supplemented with 5% FBS and incubated for 24 hours (37° C.; 5% CO2). Following 24 hours of incubation the medium was replaced with DMEM containing 10% FBS. Cells were challenged with the tested compounds at serial concentrations for 72 hours. After incubation the number of HUVEC were counted by Coulter Counter and U87, and PANC02 cells were counted by XTT respectively.
# [2] = tested on: PANC02 murine pancreatic tumor cells; assay: Cell proliferation assay, PANC02; format: cell-based
# Experimental: as §1, §2
# HUVEC [3] = assay: Migration assay of HUVEC towards VEGF; format: cell-based, human; details: equivalent concentrations of 100 nM PTX; conjugate with 5 mol % E-[c(RGDfk)2], 2.6 mol % PTX; FIG. 14
# Experimental: The anti-angiogenesis activity of the conjugates was evaluated by examining the effect of the conjugates on the ability of HUVEC to migrate toward the Vascular Endothelial Growth Factor (VEGF).
# Cell migration assay was performed using modified 8 μm Boyden chambers Transwells® (Costar Inc., USA) coated with 10 μg/ml fibronectin HUVEC (15×10^4 cells/100 μl) were challenged with the tested compounds that were added to the upper chamber of the transwells for 2 hours. Following incubation, cells were allowed to migrate to the underside of the chamber for 4 hours in the presence or absence of VEGF (20 ng/ml) in the lower chamber. Cells were then fixed and stained (Hema 3 Stain System; Fisher Diagnostics, USA). The stained migrated cells were imaged using Nikon TE2000E inverted microscope integrated with Nikon DS5 cooled CCD camera by 10× objective, brightfield illumination. Migrated cells from the captured images per membrane were counted using NIH image software. Migration was normalized to the percent of migration toward VEGF of HUVEC which were not incubated with any compound. The extent of migration is inversely proportional to the anti-angiogenesis activity of the compounds.
# HUVEC [4] = assay: Endothelial cell adhesion assay on fibrinogen coated plates; format: cell-based, human
# Experimental: The ability of E-[c(RGDfk)2] and E-c(RGDfk) moieties (SEQ ID NOs: 2 and 41) in the conjugates to inhibit endothelial attachment to cellular matrix after conjugation, was assessed using an adhesion assay. Flat bottom 96-well culture plates (Nunc, Denmark) were coated with 0.5 μg/well fibrinogen overnight at 4° C. After washing three times with Phosphate buffered saline (PBS), the wells were blocked with 1% bovine serum albumin (BSA) for 1 hour at 37° C. and washed three times again with PBS. HUVEC were harvested in phosphate-buffered saline (137 mM NaCl, 2.7 mM KCl, 4.3 mM Na2HPO4, 1.4 mM KH2PO4, pH 7.3) with 2.5 mM EDTA and resuspended in EBM-2 serum-free media (Clonetics). HUVEC were incubated for 30 minutes, at room temperature, with the tested compounds. The treated HUVEC were plated at 5×10^4 cells per well and were allowed to attach for 1 hour at 37° C. After incubation, the unattached cells were removed by rinsing the wells with PBS. The attached cells were fixed with 3.7% formaldehyde, stained with 0.5% crystal violet and were imaged using Nikon TE2000E inverted microscope integrated with Nikon DS5 cooled CCD camera by 4× objective, brightfield technique. The number of attached cells was quantified with NIH ImageJ processing and analysis software. Non-specific binding was determined by adhesion of HUVEC cells, which were not incubated with any of the tested compounds, to BSA-coated plates.
# HUVEC [5] = assay: Capillary-like tube formation assay; format: cell-based, human; details: equivalent concentrations of 10 nM (PTX) and 19 nM (E-[c(RGDfk)2]); conjugate with 5 mol % E-[c(RGDfk)2], 2.6 mol % PTX; FIG. 16B
# Experimental: The anti-angiogenesis activity of the conjugates was evaluated by the effect of the conjugates on the ability of HUVEC cells to form capillary-like tube structures.
# The surface of 24-well plates was coated with Matrigel matrix (50 μl/well) (BD Biosciences, USA) on ice and was then allowed to polymerize at 37° C. for 30 minutes. HUVEC (3×10^4 cells) were challenged with the tested compounds, and were seeded on coated plates in the presence of complete EGM-2 medium. After 8 hours of incubation (37° C.; 5% CO2), wells were imaged using Nikon TE2000E inverted microscope integrated with Nikon DS5 cooled CCD camera by 4× objective, brightfield technique. During the tube formation assay endothelial cells directionally migrate to align, branch and form polygonal networks (i.e. tube like structures). The extent of capillary-like tube structures is inversely proportional to the anti-angiogenesis activity of the compounds.
# Cathepsin B = Cathepsin B (Homo sapiens, UniProt P07858); assay: Release of PTX from conjugates in the presence of Cathepsin B; format: in vitro ADME
# Experimental: The ability of Cathepsin B to cleave and therefore release PTX from PGA copolymer-E-c(RGDfk)2-PTX (SEQ ID NO:18) was assessed as follows:
# Cathepsin B (5 U) was added last to a 1 ml solutions containing 3 mg of the tested conjugates and 20 mM sodium acetate, 2 mM EDTA and 5 mM DTT at a pH of 6 and at a temperature of 37° C. Solutions containing free PGA polymer and free PTX served as control. Sample aliquots (100 μl) were taken at various time points up to 72 hours, frozen and stored in liquid nitrogen, until assayed by HPLC (by Porous50 resin) and/or by Gel permeation chromatography (GPC; direct analysis of 50 μl aliquots). PGA polymer incubated in buffer alone (without addition of cathepsin B) served as an additional control to assess non-enzymatic hydrolytic cleavage. The amount of free PTX released from the tested compounds was assessed by HPLC (X=220 nm). Doxycycline was used as internal standard in all cases. In addition, an LC-MS analysis of the released compounds was also carried out to in order determine the major metabolites released. The MW of the conjugates was determined by diluting 50 μl aliquots of the conjugate containing solution to a final volume of 200 μl with PBS buffer and subjecting the aliquots to GPC analysis (Viscotek TDA detector).
# [6] = tested on: mCherry-labeled U87 human osteosarcoma tumors; assay: In vivo accumulation of OG-labeled conjugates in tumors, confocal microscopy; parameters: species or system SCID mice; details: i.v., 50 μM-RGD; tumors removed one hour after injection; FIG. 17A
# Excerpt: SCID male were inoculated s.c. with 2×10^6 mCherry-labeled U87 human […] or with 5×10^6 mCherry-labeled MG-63 human osteosarcoma. […] One hour after injection, tumors were removed, dissected to thin slices and examined under Zeiss Meta LSM 510 confocal imaging system.
# Cellular colocalization of OG labeled PGA-E-[c(RGDfk)2] (SEQ ID NO: 25) conjugate was monitored utilizing a Zeiss Meta LSM 510 confocal imaging systems with 40 oil objectives. All images were taken using a multi-track channel acquisition to prevent emission cross-talk between fluorescent dyes. Single XY, XZ plane-images were acquired in 1024×1024 resolution.
# αvβ3 integrin receptor = biological target: T1, αvβ3 integrin receptor (Homo sapiens, UniProt P05106+P06756); assay: αvβ3 interaction with fluorescently labeled conjugates in HUVEC; format: cell-based
# T1 construct: endogenous in cells; host or cells: HUVEC
# T1 sequence (P06756 31-889 limits assumed): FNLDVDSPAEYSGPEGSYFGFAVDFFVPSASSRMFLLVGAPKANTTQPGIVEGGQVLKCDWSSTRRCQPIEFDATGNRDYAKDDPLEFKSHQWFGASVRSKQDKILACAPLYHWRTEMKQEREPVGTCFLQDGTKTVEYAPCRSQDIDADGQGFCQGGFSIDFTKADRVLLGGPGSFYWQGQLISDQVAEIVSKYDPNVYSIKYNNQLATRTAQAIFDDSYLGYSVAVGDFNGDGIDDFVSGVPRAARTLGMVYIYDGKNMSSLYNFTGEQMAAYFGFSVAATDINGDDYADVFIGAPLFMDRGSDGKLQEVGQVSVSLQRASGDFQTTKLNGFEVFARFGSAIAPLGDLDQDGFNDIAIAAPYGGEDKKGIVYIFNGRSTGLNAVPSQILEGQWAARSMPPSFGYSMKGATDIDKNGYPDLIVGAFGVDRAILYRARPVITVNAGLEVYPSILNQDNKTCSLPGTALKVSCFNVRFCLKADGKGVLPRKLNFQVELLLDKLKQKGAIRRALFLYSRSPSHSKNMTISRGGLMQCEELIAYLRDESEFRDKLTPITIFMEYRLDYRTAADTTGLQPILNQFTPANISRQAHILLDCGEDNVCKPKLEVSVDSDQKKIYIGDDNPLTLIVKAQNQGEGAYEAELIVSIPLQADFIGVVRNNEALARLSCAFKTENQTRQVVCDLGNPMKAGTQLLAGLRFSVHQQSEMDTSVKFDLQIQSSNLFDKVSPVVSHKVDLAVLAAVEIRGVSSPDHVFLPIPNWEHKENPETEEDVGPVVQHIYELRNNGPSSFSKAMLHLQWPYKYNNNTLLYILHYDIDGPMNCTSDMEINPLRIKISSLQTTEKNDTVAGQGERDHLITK
# T1 sequence (P06756 891-1048 limits assumed): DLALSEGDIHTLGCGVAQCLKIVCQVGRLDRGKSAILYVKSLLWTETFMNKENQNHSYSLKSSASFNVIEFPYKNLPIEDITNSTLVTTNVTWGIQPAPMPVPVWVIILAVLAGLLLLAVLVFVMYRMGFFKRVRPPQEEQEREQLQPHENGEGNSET
# T1 sequence (P05106 27-788): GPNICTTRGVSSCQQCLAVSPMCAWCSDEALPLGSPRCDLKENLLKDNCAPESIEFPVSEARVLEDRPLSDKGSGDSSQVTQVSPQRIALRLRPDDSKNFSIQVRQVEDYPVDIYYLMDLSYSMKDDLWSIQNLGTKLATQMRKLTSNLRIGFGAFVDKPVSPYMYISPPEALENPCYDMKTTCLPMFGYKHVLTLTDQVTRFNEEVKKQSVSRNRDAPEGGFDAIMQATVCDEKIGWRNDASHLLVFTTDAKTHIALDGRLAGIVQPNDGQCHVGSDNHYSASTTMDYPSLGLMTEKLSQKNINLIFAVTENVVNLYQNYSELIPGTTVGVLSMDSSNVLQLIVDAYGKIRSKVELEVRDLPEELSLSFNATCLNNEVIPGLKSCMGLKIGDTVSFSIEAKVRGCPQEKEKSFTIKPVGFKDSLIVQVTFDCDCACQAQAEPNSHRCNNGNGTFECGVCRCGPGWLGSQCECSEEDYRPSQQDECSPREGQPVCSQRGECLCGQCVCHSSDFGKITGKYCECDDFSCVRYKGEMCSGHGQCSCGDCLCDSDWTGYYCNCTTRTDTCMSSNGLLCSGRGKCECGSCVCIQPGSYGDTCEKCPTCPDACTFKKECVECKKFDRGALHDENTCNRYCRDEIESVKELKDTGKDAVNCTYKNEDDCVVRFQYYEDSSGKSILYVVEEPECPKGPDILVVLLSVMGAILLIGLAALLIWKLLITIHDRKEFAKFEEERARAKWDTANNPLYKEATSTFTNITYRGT
# Experimental: A fluorescence probe, Oregon Green-cadaverine (OG), was conjugated to PGA conjugates through the free carboxylic groups (see Example 5 for synthesis description), in order to study the cellular uptake and trafficking.
# HUVEC were plated onto 6 mm plates (5×10^5 cells/plate) in EBM-2 (Cambrex, USA) supplemented with 5% FBS. Following 24 hours of incubation (37° C.; 5% CO2), cells were challenged with either PGA-OG, PGA-c(RADfk)-OG (SEQ ID NO: 24) or PGA-E-[c(RGDfk)2]-OG (SEQ ID NO:25) diluted in EGM-2 medium for 5, 10, 15, 30 or 60 minutes. Cells were then washed in PBS (×3), harvested with PBS containing 2.5 mM EDTA and analyzed with the ImageStream 100 imaging flow cytometer (Amnis). Analysis was performed using IDEAS software.
# [7] = Hydrodynamic diameter by Nanoparticle Tracking Analysis; format: physicochemical; details: PTX loading of 2.3 mol % and -E-c(RGDfk) loading of 5 mol %; PBS; FIG. 9C
# Experimental: The mean hydrodynamic diameter of the PGA conjugates was evaluated using a real time particle analyzer (NanoSight LM20™) containing a solid-state, single mode laser diode (<20 mW, 655 nm) configured to launch a finely focused beam through a 500 μl sample chamber. The tested conjugate was dissolved in PBS to a final concentrations of 9.9 mg/ml. The samples were then injected into the chamber by syringe and allowed to equilibrate to a unit temperature (23° C.) for 30 seconds. The particles dynamics were visualized at 30 frames per second (fps) for 60 seconds at 640×480 resolution by the device CCD camera. The paths the particles take under Brownian motion over time were analyzed using Nanoparticle Tracking Analysis (NTA) software. […] Each sample was measured three times in triplicates, and the results represent the mean diameter.
# [8] = HUVEC proliferation, nM PTX, FIG. 13A (5 mol % E-[c(RGDfk)2], 2.6 mol % PTX) and FIG. 13B (monocyclic), read-out: IC50, bell shaped effect, higher value
# [9] = HUVEC proliferation, nM PTX, FIG. 13A (5 mol % E-[c(RGDfk)2], 2.6 mol % PTX) and FIG. 13B (monocyclic), read-out: IC50, bell shaped effect, lower value
# [10] = HUVEC, 72 hours, bis-cyclic RGD compounds (X = 2), NA = did not reach IC50 in the concentrations used, 'a -- b' = bell-shaped curve, read-out: IC50 (nM) of PGA- PTX-E-[c(RGDfk)2] (SEQ ID NO: 18) 2.6 mol % PTX, 5 mol % RGD
substance,measurement,setting,value
PGA-Copolymer -E-c(RGDfk)2-Paclitaxel [PGA-PTX-E-[c(RGDfk)2]],IC50,HUVEC [1]; [8],~20 nM
same,IC50,HUVEC [1]; [9],~0.2 nM
same,IC50,HUVEC [1]; [10],25 nM
same,IC50,"[2]; PANC02, 72 hours, bis-cyclic RGD compounds (X = 2), NA = did not reach IC50 in the concentrations used, read-out: IC50 (nM) of PGA- PTX-E-[c(RGDfk)2] (SEQ ID NO: 18) 5 mol % PTX, 3.9 mol % RGD",650 nM
same,IC50,"[2]; nM PTX, equivalent doses, FIG. 12C, read-out: IC50 of PANC02 proliferation",~650 nM
same,inhibition of the migration of HUVEC towards VEGF,HUVEC [3],about 40%
same,adhesion inhibition compared with the monocyclic conjugate PGA-PTX-E-c(RGDfk),HUVEC [4]; both loadings of the bis-cyclic conjugate,inhibited the adhesion more effectively than the monocyclic RGDfk peptide conjugate
same,adhesion inhibition compared with the other loading,HUVEC [4]; conjugate with 3.9 mol % E-[c(RGDfk)2] and 5.5 mol % PTX versus conjugate with 5 mol % E-[c(RGDfk)2] and 2.6 mol % PTX,more effective than the second
same,inhibition of the formation of tubular structures of HUVEC,HUVEC [5],about 40%
same,PTX release kinetics compared to the other conjugates,"Cathepsin B; conjugate with 3.9 mol % E-[c(RGDfk)2], 5.5 mol % PTX, pH 6, 37° C.",slightly faster release kinetics
same,"PTX release compared with the conjugate of 2.6 mol % PTX, 5 mol % E-[c(RGDfk)2]","Cathepsin B; conjugate with 5.5 mol % PTX, 3.9 mol % E-[c(RGDfk)2], after 48 hours",greater
PGA-E-[c(RGDfk)2],effect on HUVEC proliferation,HUVEC [1]; FIG. 12A,only at high concentrations
same,IC50,HUVEC [1]; [10],2900 nM
same,IC50,"HUVEC [1]; HUVEC, 72 hours, bis-cyclic RGD compounds (X = 2), NA = did not reach IC50 in the concentrations used, 'a -- b' = bell-shaped curve, read-out: IC50 (nM) of PGA- PTX-E-[c(RGDfk)2] (SEQ ID NO: 18) 5 mol % PTX, 3.9 mol % RGD",7000 nM
same,accumulation of the conjugate at the tumor site,[6],able to accumulate in the tumor tissue
PGA-E-[c(RGDfk)2]-OG,time at which conjugate-cell adherence was first observed,αvβ3 integrin receptor; ImageStream 100 imaging flow cytometer,10 min
same,extent of binding / uptake by HUVEC,"αvβ3 integrin receptor; OG fluorescence, FIGS. 11B, 11C",higher uptake
same,accumulation of the conjugate at the tumor site,[6],high accumulation
PGA-PTX-E-c(RGDfk),IC50,HUVEC [1]; [8],~20 nM
same,IC50,HUVEC [1]; [9],~0.2 nM
same,inhibition of HUVEC adhesion to fibrinogen,"HUVEC [4]; equivalent concentrations of 50 μM RGD, FIG. 15",~50%
same,mean hydrodynamic diameter,[7],about 35 nm
